18 molecules from patent US11884676B2, “Substituted pyrimido[1,2-b]pyridazines as positive allosteric modulators of the muscarinic acetylcholine receptor M4” (Vanderbilt University, priority 2020, dated 2024) can be followed below.

This assay has as its target T1, Human M4 (Homo sapiens, UniProt P08173).
T1 construct: expressed in transfected cells
T1 sequence (P08173 1-479): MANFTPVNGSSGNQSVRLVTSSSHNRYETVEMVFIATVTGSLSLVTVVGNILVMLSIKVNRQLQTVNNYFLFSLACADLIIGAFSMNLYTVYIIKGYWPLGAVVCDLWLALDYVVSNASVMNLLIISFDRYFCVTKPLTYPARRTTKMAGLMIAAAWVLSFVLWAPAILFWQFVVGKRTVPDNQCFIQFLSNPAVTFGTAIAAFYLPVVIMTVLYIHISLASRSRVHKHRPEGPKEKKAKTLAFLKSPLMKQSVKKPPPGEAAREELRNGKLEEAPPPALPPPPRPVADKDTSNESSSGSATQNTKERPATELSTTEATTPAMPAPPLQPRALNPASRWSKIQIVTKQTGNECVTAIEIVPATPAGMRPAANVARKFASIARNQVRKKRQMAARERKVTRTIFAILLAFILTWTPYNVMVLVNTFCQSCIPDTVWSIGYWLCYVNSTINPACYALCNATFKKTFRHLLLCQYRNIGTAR
Kind of assay: mAChR M4 cell-based functional assay (calcium flux, PAM mode). The note with it: for Emax at 30 µM: CHO-K1, % ACh maximum at 30 μM; for Emax at 30 µM / EC50: hM4-Gqi5 CHO-K1 cells; for EC50: concentration-dependent increase in the EC20 acetylcholine response. Further details: Emax: dose or concentration left out as unconfirmed. As for the experimental part:
Human and rat M4 cDNAs, along with the chimeric G protein Gqi5, were transfected into Chinese hamster ovary (CHO-K1) cells purchased from the American Type Culture Collection using Lipofectamine2000. hM4-Gqi5 cells were grown in Ham's F-12 medium containing 10% heat-inactivated fetal bovine serum (FBS), 20 mM HEPES, 50 μg/mL G418 sulfate, and 500 μg/mL Hygromycin B. rM4-Gqi5 cells were grown in DMEM containing 10% heat-inactivated FBS, 20 mM HEPES, 400 μg/mL G418 sulfate, and 500 μg/mL Hygromycin B.
For high throughput measurement of agonist-evoked increases in intracellular calcium, CHO-K1 cells stably expressing muscarinic receptors were plated in growth medium lacking G418 and hygromycin at 15,000 cells/20 μL/well in Greiner 384-well black-walled, tissue culture (TC)-treated, clear-bottom plates (VWR). Cells were incubated overnight at 37° C. and 5% CO2. The next day, cells were washed using an ELX 405 (BioTek) with assay buffer; the final volume was then aspirated to 20 μL. Next, 20 μL of a 2.3 μM stock of Fluo-4/acetoxymethyl ester (Invitrogen, Carlsbad, CA), prepared as a 2.3 mM stock in DMSO and mixed in a 1:1 ratio with 10% (w/v) Pluronic F-127 and diluted in assay buffer, was added to the wells and the cell plates were incubated for 50 min at 37° C. and 5% CO2. Dye was removed by washing with the ELX 405 and the final volume was aspirated to 20 μL. Compound master plates were formatted in an 11 point concentration-response curve (CRC) format (1:3 dilutions) in 100% DMSO with a starting concentration of 10 mM using a BRAVO liquid handler (Agilent). Test compound CRCs were then transferred to daughter plates (240 nL) using the Echo acoustic plate reformatter (Labcyte, Sunnyvale, CA) and then diluted into assay buffer (40 μL) to a 2× stock using a Thermo Fisher Combi (Thermo Fisher Scientific, Waltham, MA).
Calcium flux was measured using the Functional Drug Screening System (FDSS) 6000 or 7000 (Hamamatsu Corporation, Tokyo, Japan) as an increase in the fluorescent static ratio. Compounds were applied to cells (20 μL, 2×) using the automated system of the FDSS at 2-4 seconds into the protocol and the data were collected at 1 Hz. At 144 seconds, 10 μL of an EC20 concentration of the muscarinic receptor agonist acetylcholine was added (5×), followed by the addition of 12 μL of an EC80 concentration of acetylcholine at the 230 second time point (5×). Agonist activity was analyzed as a concentration-dependent increase in calcium mobilization upon compound addition. Positive allosteric modulator activity was analyzed as a concentration-dependent increase in the EC20 acetylcholine response. Antagonist activity was analyzed as a concentration-dependent decrease in the EC80 acetylcholine response. Concentration-response curves were generated using a four-parameter logistical equation in XLFit curve fitting software (IDBS, Bridgewater, NJ) for Excel (Microsoft, Redmond, WA) or Prism (GraphPad Software, Inc., San Diego, CA).
Compounds were synthesized as described above. Activity (EC50 and Emax) was determined in the mAChR M4 cell-based functional assay as described above and the data are shown in Table 2. The compound number corresponds to the compound numbers used in Examples 1 to 11 and Tables 1.

With `[2H]C1(Oc2ccc3c(c2)OC([2H])([2H])C([2H])([2H])O3)CCN(c2nn3c(=O)cc(C(F)(F)F)nc3cc2C)CC1` [Compound 45, 7-(4-((2,3-dihydrobenzo[b][1,4]dioxin-6-yl-2,2,3,3-d4)oxy)piperidin-1-yl-4-d)-8-methyl-2-(trifluoromethyl)-4H-pyrimido[1,2-b]pyridazin-4-one], the Emax at 30 µM turned out to be 77% and the EC50 was 26 nM.

For the molecule `CNc1c(C)c(N2CCC(Oc3ccc4c(c3)OCCO4)CC2)nn2c(=O)ccnc12` [Compound 123, 7-(4-((2,3-dihydrobenzo[b][1,4]dioxin-6-yl)oxy)piperidin-1-yl)-8-methyl-9-(methylamino)-4H-pyrimido[1,2-b]pyridazin-4-one], the Emax at 30 µM is 89% and the concentration giving a half-maximal response (EC50) came to 556 nM.

On to `[2H]C1(Oc2ccc3c(c2)OCCO3)CCN(c2nn3c(=O)ccnc3cc2C)CC1` [Compound 48, 7-(4-((2,3-dihydrobenzo[b][1,4]dioxin-6-yl)oxy)piperidin-1-yl-4-d)-8-methyl-4H-pyrimido[1,2-b]pyridazin-4-one], for which the Emax at 30 µM is 91% and the EC50 stood at 46 nM.

As for `[2H]C1(Oc2ccc3c(c2)OC([2H])([2H])C([2H])([2H])O3)CCN(c2nn3c(=O)ccnc3c(C3CC3)c2C)CC1` [Compound 97, 9-cyclopropyl-7-(4-((2,3-dihydrobenzo[b][1,4]dioxin-6-yl-2,2,3,3-d4)oxy)piperidin-1-yl-4-d)-8-methyl-4H-pyrimido[1,2-b]pyridazin-4-one], the Emax at 30 µM came out at 78% and the EC50 is 424 nM.

As to `[2H]C1(Oc2ccc3c(c2)OCO3)CCN(c2nn3c(=O)cc(C(F)(F)F)nc3cc2C)CC1` [Compound 63, 7-(4-(benzo[d][1,3]dioxol-5-yloxy)piperidin-1-yl-4-d)-8-methyl-2-(trifluoromethyl)-4H-pyrimido[1,2-b]pyridazin-4-one], the Emax at 30 µM was determined as 102% and the EC50 is 342 nM.

Consider `[2H]C1(Oc2ccc3c(c2)OCO3)CCN(c2nn3c(=O)ccnc3cc2C)CC1` [Compound 68, 7-(4-(benzo[d][1,3]dioxol-5-yloxy)piperidin-1-yl-4-d)-8-methyl-4H-pyrimido[1,2-b]pyridazin-4-one], for which the Emax at 30 µM was 91% and the EC50 amounted to 288 nM.

Turning to `[2H]C1([2H])Oc2ccc(O[C@H]3CCN(c4nn5c(=O)ccnc5c(C)c4C)[C@H](C)C3)cc2OC1([2H])[2H]` [Compound 132, 7-((2R,4S)-4-((2,3-dihydrobenzo[b][1,4]dioxin-6-yl-2,2,3,3-d4)oxy)-2-methylpiperidin-1-yl)-8,9-dimethyl-4H-pyrimido[1,2-b]pyridazin-4-one], the Emax at 30 µM was 107% and the EC50 was 34 nM.

Regarding `Cc1cc(=O)n2nc(N3CCC(Oc4ccc5c(c4)C(=O)NCC5)CC3)c(C)cc2n1` [Compound 72, 2,8-dimethyl-7-(4-((1-oxo-1,2,3,4-tetrahydroisoquinolin-7-yl)oxy)piperidin-1-yl)-4H-pyrimido[1,2-b]pyridazin-4-one], the Emax at 30 µM worked out at 74% and the EC50 is 1540 nM.

Turning to `COCc1cc(=O)n2nc(N3CCC(Oc4ccc5c(c4)OCCO5)CC3)c(C)c(C)c2n1` [Compound 13, 7-(4-((2,3-Dihydrobenzo[b][1,4]dioxin-6-yl)oxy)piperidin-1-yl)-2-(methoxymethyl)-8,9-dimethyl-4H-pyrimido[1,2-b]pyridazin-4-one], the Emax at 30 µM was found to be 95% and the EC50 is 22 nM.

For the molecule `[2H]C1(Oc2ccc3c(c2)OC([2H])([2H])C([2H])([2H])O3)CCN(c2nn3c(=O)cc(C(F)F)nc3cc2C)CC1` [Compound 65, 2-(difluoromethyl)-7-(4-((2,3-dihydrobenzo[b][1,4]dioxin-6-yl-2,2,3,3-d4)oxy)piperidin-1-yl-4-d)-8-methyl-4H-pyrimido[1,2-b]pyridazin-4-one], the Emax at 30 µM stood at 108% and the EC50 came out at 20 nM.

As to `[2H]C1(Oc2ccc3c(c2)OCCO3)CCN(c2nn3c(=O)c(C)c(C)nc3cc2C)CC1` [Compound 60, 7-(4-((2,3-dihydrobenzo[b][1,4]dioxin-6-yl)oxy)piperidin-1-yl-4-d)-2,3,8-trimethyl-4H-pyrimido[1,2-b]pyridazin-4-one], the Emax at 30 µM stood at 91% and the EC50 was found to be 28 nM.

Regarding `[2H]C1(Oc2ccc3c(c2)OC([2H])([2H])C([2H])([2H])O3)CCN(c2nn3c(=O)ccnc3c(C)c2COC)CC1` [Compound 102, 7-(4-((2,3-dihydrobenzo[b][1,4]dioxin-6-yl-2,2,3,3-d4)oxy)piperidin-1-yl-4-d)-8-(methoxymethyl)-9-methyl-4H-pyrimido[1,2-b]pyridazin-4-one], the Emax at 30 µM came to 94% and the EC50 came out at 170 nM.

For the molecule `Cc1cc(=O)n2nc(N3CC[C@@H](Oc4ccc5c(c4)OCCO5)[C@@H](F)C3)c(C)cc2n1` [Compound 33, 7-((3S,4R)-4-((2,3-dihydrobenzo[b][1,4]dioxin-6-yl)oxy)-3-fluoropiperidin-1-yl)-2,8-dimethyl-4H-pyrimido[1,2-b]pyridazin-4-one], the Emax at 30 µM turned out to be 117% and the EC50 came out at 40 nM.

Turning to `[2H]C1([2H])Oc2ccc(O[C@@H]3CCN(c4nn5c(=O)cc(COC)nc5c(C)c4C)C[C@H]3F)cc2OC1([2H])[2H]` [Compound 124, 7-((3R,4R)-4-((2,3-dihydrobenzo[b][1,4]dioxin-6-yl-2,2,3,3-d4)oxy)-3-fluoropiperidin-1-yl)-2-(methoxymethyl)-8,9-dimethyl-4H-pyrimido[1,2-b]pyridazin-4-one], the Emax at 30 µM turned out to be 109% and the EC50 worked out at 101 nM.

For the molecule `Cc1cc2nccc(=O)n2nc1N1CC[C@@H](Oc2ccc3c(c2)OCCO3)[C@H](F)C1` [Compound 32, 7-((3R,4R)-4-((2,3-dihydrobenzo[b][1,4]dioxin-6-yl)oxy)-3-fluoropiperidin-1-yl)-8-methyl-4H-pyrimido[1,2-b]pyridazin-4-one], the Emax at 30 µM stood at 81% and the EC50 was 147 nM.

For `Cc1c(N2CCC(Oc3ccc(Cl)cc3)CC2)nn2c(=O)ccnc2c1C` [Compound 87], the EC50 amounted to 268 nM. Also, the Emax (CHO-K1, read-out: Human M4 Emax (%)*) was 93%.

Consider `[2H]C1([2H])Oc2ccc(O[C@@H]3CCN(c4nn5c(=O)cc(COC)nc5cc4C)C[C@H]3F)cc2OC1([2H])[2H]` [Compound 125, 7-((3R,4R)-4-((2,3-dihydrobenzo[b][1,4]dioxin-6-yl-2,2,3,3-d4)oxy)-3-fluoropiperidin-1-yl)-2-(methoxymethyl)-8-methyl-4H-pyrimido[1,2-b]pyridazin-4-one], for which the Emax at 30 µM stood at 108% and the EC50 is 87 nM.

On to `CCc1cc(=O)n2nc(N3CCC(Oc4ccc5c(c4)OCCO5)CC3)c(C)c(C)c2n1` [Compound 11, 7-(4-((2,3-Dihydrobenzo[b][1,4]dioxin-6-yl-2,2,3,3-d4)oxy)piperidin-1-yl)-2-ethyl-8,9-dimethyl-4H-pyrimido[1,2-b]pyridazin-4-one], for which the Emax at 30 µM was 99% and the half-maximal effective concentration (EC50) turned out to be 49 nM.
